Data reported in article PMC6100056, “Antitumor Effects and Delivery Profiles of Menahydroquinone-4 Prodrugs with Ionic or Nonionic Promoiety to Hepatocellular Carcinoma Cells” (Molecules : A Journal of Synthetic Chemistry and Natural …, 2018).
Where a name gives a salt, the structure may show the parent alone.

Experiments:
[1] = system: cyclin D1 and CDK4 in PLC/PRF/5 cells; assay: Western blotting of cell cycle regulatory proteins; type: cell-based; conditions: 24 h after treatment
Protocol: We previously reported that MKH-DMG regulates cell cycle-related proteins as a mechanism of MKH-DMG-induced growth inhibition in PLC/PRF/5, Hep3B and SK-Hep-1 cells. Thus, to clarify the mechanisms of the growth inhibition induced by the MKH-ester prodrugs, we analyzed cell cycle-related proteins using Western blotting (Figure 7).
HCC cells were plated at 1.5 × 10^5 cells/well in 6-well plates and allowed to attach for 48 h. Cells were treated with MK-4, MKH-ACT, MKH-DMG or MKH-SUC for 24 h. Western blotting was performed as described previously.

SK-Hep-1 cells [2] = assay: Cell viability assay (Cell Titer-Glo); type: cell-based; conditions: for IC50: Homo sapiens, 95% confidence interval in square brackets
Protocol: (§1) To assess the effects of MKH-ester prodrugs on HCC cell proliferation, DCP-positive (PLC/PRF/5) and DCP-negative (SK-Hep-1) HCC cell lines were treated with various concentrations of MKH-ACT, MKH-DMG, MKH-SUC or MK-4 up to 96 h, and cell viability was determined.
(§2) Cell viability was determined using a previously reported method. Briefly, PLC/PRF/5 and SK-Hep-1 cells were plated at 5.0 × 10^3 cells/well in 96-well plates and allowed to attach for 48 h. MK-4 and MKH-ACT were dissolved in 99.5% ethanol. MKH-SUC was dissolved in DMSO. MKH-DMG was dissolved in sterilized water. Stock solutions of each drug (50 mM) were diluted to the intended final concentrations with medium. Cells were exposed to MK-4, MKH-ACT, MKH-DMG or MKH-SUC for up to 96 h, and cell viability was evaluated using the Cell Titer-Glo Luminescent Cell Viability Assay (Promega, Madison, WI, USA) according to the manufacturer’s instructions. IC50 values were determined by a log [drug] vs. normalized response-variable slope analysis of GraphPad Prism, version 6.0 (GraphPad Software, San Diego, CA, USA).

PLC/PRF/5 cells [3] = assay: Cell viability assay (Cell Titer-Glo); type: cell-based; conditions: for IC50: Homo sapiens, 95% confidence interval in square brackets
Protocol: as §1, §2

SK-Hep-1 cells [4] = assay: MKH delivery into HCC cells: intracellular MKO and MK-4 concentration-time profiles; type: in vitro ADME; conditions: dose 25 μM, trapezoidal rule
Source text: (§3) When assessing the delivery of MKH into HCC cells by MKH-ester prodrugs, although the MKH levels in HCC cells should be quantified, it is difficult to determine an accurate MKH level owing to its rapidly oxidative characteristics to MK-4. Concomitant with γ-carboxylation in producing of vitamin K-dependent proteins, MKH is stoichiometrically converted to MK-4 epoxide (MKO), as shown in Figure 1. Thus, MKO levels in HCC cells can reflect the levels of MKH. In addition, the intracellular MK-4 in HCC cells after MKH-DMG treatment is the oxidative product of MKH, which is generated by hydrolysis of MKH-DMG [22]. The estimation rules of MKH in an earlier report were adopted in this study, in which the sum of MKO and MK-4 levels after MKH-ester prodrug treatment was regarded as the MKH level delivered into HCC cells. In MK-4 treatment, the MKH level was assessed by determining the level of MKO.
(§4) MKH delivery into HCC cells with 25 μM MKH-ester derivatives was determined after 1, 3, 6, 12 or 24 h of incubation. […] The AUC0–24h values for MKO (AUCMKO), MK-4 (AUCMK-4) and MKH (AUCMKH) were calculated using the trapezoidal rule (Table 3). […]
(§5) HCC cells were plated at 1.5 × 10^5 cells/well in 6-well plates and allowed to attach for 48 h. […] The protein concentration of the cell homogenate was determined using a BCA protein assay kit. […]

PLC/PRF/5 cells [5] = assay: as above; type: in vitro ADME; conditions: dose 25 μM, trapezoidal rule
Source text: as §3, §4, §5

[6] = set-up: method as in PMID 21574174; conditions: clinical dose (45 mg/day) or double dose (90 mg/day); trial in Japan; cited from earlier work

Row | SMILES | melting point [°C] | Effect on cyclin D1 and CDK4 expression compared with controls [1] | Inhibition of cell viability of the control (SK-Hep-1 cells [2]; 60 μM, 72 h) | Inhibition of cell viability of the control (SK-Hep-1 cells [2]; 60 μM, 96 h) [%] | Inhibition of cell viability of the control (SK-Hep-1 cells [2]; 20–40 μM, 96 h) [%] | IC50 (SK-Hep-1 cells [2]; SK-HEP1, 72 h) [µM] | IC50 (SK-Hep-1 cells [2]; SK-HEP1, 96 h) [µM] | Inhibition of cell viability of the control (PLC/PRF/5 cells [3]; 40–60 μM, 96 h) | IC50 (PLC/PRF/5 cells [3]; 72 h) [µM] | IC50 (PLC/PRF/5 cells [3]; 96 h) [µM] | AUC0–24h for MK-4 (SK-Hep-1 cells [4]) [nmol·h·mg Protein^−1] | AUC0–24h for MK-4 (PLC/PRF/5 cells [5]) [nmol·h·mg Protein^−1] | Effect on cumulative recurrence of HCC [6]
1 | CC(C)=CCC/C(C)=C/CC/C(C)=C/CC/C(C)=C/Cc1c(C)c(OC(=O)CCC(=O)O)c2ccccc2c1OC(=O)CCC(=O)O (as salt: succinate) [MKH-SUC, Menahydroquinone-4 1,4-bis hemisuccinate] | 179 to 181 |  |  |  |  |  |  |  |  |  |  |  | 
2 | CC(C)=CCC/C(C)=C/CC/C(C)=C/CC/C(C)=C/CC1=C(C)C(=O)c2ccccc2C1=O [MK-4, menaquinone-4, reference compound] |  | did not affect | about 20% | 40 | 20 | 80.2 | 88.2 | 30–40% | 188 | 86.8 | 41.6 ± 9.04 | 12.2 ± 4.19 | did not find any statistically significant improvement
